Laboratory results published in US4237225A, “Process for preparing tunicamycin” (priority 1978, dated 1980).

Key:
Type in all cases: cell-based
Staphylococcus aureus = assay: standard paper-disc inhibition test, zone of inhibition, Staphylococcus aureus; conditions: in vitro
Excerpt: (§1) The zones of inhibition, as determined in these tests, are shown below: […]

Bacillus subtilis = assay: standard paper-disc inhibition test, zone of inhibition, Bacillus subtilis; conditions: in vitro
Excerpt: as §1

Micrococcus luteus = assay: standard paper-disc inhibition test, zone of inhibition, Micrococcus luteus; conditions: in vitro
Excerpt: as §1

[1] = system: Saccharomyces pastorianus; assay: standard paper-disc inhibition test, zone of inhibition, Saccharomyces pastorianus; conditions: in vitro
Excerpt: as §1

Neurospora crassa = assay: standard paper-disc inhibition test, zone of inhibition, Neurospora crassa; conditions: in vitro
Excerpt: as §1

Candida albicans = assay: standard paper-disc inhibition test, zone of inhibition, Candida albicans; conditions: in vitro
Excerpt: as §1

[2] = system: certain pathogenic organisms, particularly gram positive bacteria, fungi, and yeasts; assay: in vitro standard paper-disc inhibition tests (summary statement)
Excerpt: as §1

[3] = Bacillus subtilis in minimal medium

Row | SMILES | Zone Diameter (Staphylococcus aureus) | Zone Diameter (Bacillus subtilis; [3]) [mm] | Zone Diameter (Bacillus subtilis; Bacillus subtilis) [mm] | Zone Diameter (Micrococcus luteus) | Zone Diameter [1] [mm] | Zone Diameter (Neurospora crassa) | Zone Diameter (Candida albicans) [mm] | growth inhibition of certain pathogenic organisms [2]
1 | CC(=O)NC1C(OC2OC(CC(O)C3OC(n4ccc(=O)[nH]c4=O)C(O)C3O)C(O)C(O)C2NC(=O)/C=C/CCCCCCCCCCCC(C)C)OC(CO)C(O)C1O (stereo not drawn) [Tunicamycin D] | tr (trace (6.5-9 mm)) | 27 | 19 | tr (trace (6.5-9 mm)) | 13 | tr (trace (6.5-9 mm)) | 11 | inhibit the growth
2 | CC(=O)NC1C(OC2OC(CC(O)C3OC(n4ccc(=O)[nH]c4=O)C(O)C3O)C(O)C(O)C2NC(=O)/C=C/CCCCCCCCCCC(C)C)OC(CO)C(O)C1O (stereo not drawn) [Tunicamycin B] | tr (trace (6.5-9 mm)) | 29 | 19 | 10 mm | 23 | 10 mm | 12 | inhibit the growth
3 | CC(=O)NC1C(OC2OC(CC(O)C3OC(n4ccc(=O)[nH]c4=O)C(O)C3O)C(O)C(O)C2NC(=O)/C=C/CCCCCCCCCC(C)C)OC(CO)C(O)C1O (stereo not drawn) [Tunicamycin A] | tr (trace (6.5-9 mm)) | 35 | 25 |  | 18 | 10 mm | 15 | inhibit the growth
4 | CC(=O)NC1C(OC2OC(CC(O)C3OC(n4ccc(=O)[nH]c4=O)C(O)C3O)C(O)C(O)C2NC(=O)/C=C/CCCCCCCCC(C)C)OC(CO)C(O)C1O (stereo not drawn) [Tunicamycin C] |  | 36 | 28 | tr (trace (6.5-9 mm)) | 16 | 10 mm | 14 | inhibit the growth
